Assay results from patent US12590100B2, “Tetrahydro-spiroindoline-pyrrolopyrrole-triones inhibitors of the NRF2-β-TrCP interaction for use in the treatment of fatty liver disease” (Universidad Autonoma De Madrid, priority 2021, dated 2026).

System: NRF2
Test: NRF2 and HO-1 protein levels in MEFs (immunoblot)
Type: cell-based, mouse
Description: FIG. 4. […] MEFs in serum-depleted conditions were subjected to (A-C) 1 μM, 3 μM, or 10 μM of PHAR and 10 μM of SFN as a positive control for 16 h; or (D-F) 10 μM of PHAR for the indicated times. In both experiments, 0.1% DMSO was used as a vehicle. A), representative immunoblots of NRF2, HO1, KEAP1, LAMINB, and GAPDH as loading controls. B) and C), densitometric analysis of NRF2 and HO1 protein levels of the representative immunoblots depicted in (A), expressed as a ratio of NRF2/LAMINB or HO1/GAPDH. The data is depicted as means±SEM (n=3). Statistical analysis was performed with one-way ANOVA followed by the Bonferroni test to check inter-group differences. *p<0.05; ***p<0.001 vs. 0. D), representative immunoblots of NRF2, HO1, KEAP1, LAMINB, and GAPDH as loading controls. E) and F), Densitometric analysis of NRF2 and HO1 protein levels of the representative immunoblots of (D), expressed as a ratio of NRF2/LAMINB or HO1/GAPDH. The data is depicted as means±SEM (n=3). Statistical analysis was performed with one-way ANOVA followed by the Bonferroni test to check inter-group differences. *p<0.05; ***p<0.001 vs. 0. G), Reporter MCF-7 c32 ARE-luc cells were subjected to 1 μM, 3 μM, or 9 μM of PHAR and 10 μM of SFN as a positive control. 0.1% DMSO was used as a vehicle. Luciferase activity was measured after 16 h of treatment. The data is depicted as means±SEM (n=3). Statistical analysis was performed with one-way ANOVA followed by the Bonferroni test to check inter-group differences. **p<0.01; ***p<0.001 vs. 0. H), MTT assay to evaluate cell viability/toxicity after treatments. I), Serum-deprived MEFs were subjected to 10 μM of PHAR. The mRNA levels of Hmox1, Nqo1, Aox1, Glc, and Gclm after 8 h of treatment were determined by means of pRT-PCR and normalized by means of average LaminB, Gapdh, and β-actin. The data is depicted as means±SEM (n=3). Statistical analysis was performed with the Student's T test. *p<0.05; **p<0.01 ***p<0.001 vs. 0.
In order to empirically determine if PHAR activates NRF2, mouse embryo fibroblasts (MEFs) were treated with several doses of the compound (1 μM, 3 μM, and […]) for 16 h and with 10 μM of sulforaphane (SFN), one of main electrophilic activators of NRF2, used as a positive control.
Moreover, a time course of NRF2 activation with PHAR (10 μM for 2, 4, and 8 h) or with SFN (10 μM, 8 h) was done as a positive control.

## O=C1[C@@H]2[C@H](Cc3c[nH]c4ccccc34)N[C@]3(C(=O)Nc4ccc(Cl)cc43)[C@@H]2C(=O)N1c1ccc2c(c1)OCCO2 [PHAR]
16 h, PHAR 1, 3, 9 μM
  HO-1 levels: increase, mainly with the dose of 9 μM
16 h, PHAR 1, 3, 9 μM, SFN 10 μM
  NRF2 accumulation: induced NRF2 accumulation, although to a slightly lesser extent than the accumulation induced by SFN
PHAR 10 μM for 2, 4, 8 h, SFN 10 μM, 8 h
  NRF2 accumulation, time course: induced NRF2 accumulation 2 h after treatment
PHAR 10 μM, 8 h
  HO-1 levels, time course: increase in HO-1 levels after 8 h
